{"source": "patent US10807970B2", "about": "(priority 2016, dated 2020)", "data": [{"biological_target": "human σ1 receptor (Homo sapiens, UniProt Q99720)", "sequence (Q99720 whole entry)": "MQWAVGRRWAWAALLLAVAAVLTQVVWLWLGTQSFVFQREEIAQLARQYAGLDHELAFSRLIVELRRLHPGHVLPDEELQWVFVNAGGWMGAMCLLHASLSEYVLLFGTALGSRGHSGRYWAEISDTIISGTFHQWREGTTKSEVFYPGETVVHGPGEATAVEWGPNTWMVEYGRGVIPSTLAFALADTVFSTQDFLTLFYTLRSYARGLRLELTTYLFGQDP", "assay": "Human σ1 receptor radioligand assay ([3H](+)-pentazocine, transfected HEK-293 membranes)", "assay_type": "binding", "design": "μ and σ1 dual binding: key to the marks not given beside the values", "settings": "one class symbol for both Ki-σ1 (human σ1 receptor, A1) and Ki-μ (human μ-opioid receptor, A2)", "protocol": "(§1) Human σ1 Receptor Radioligand Assay\n(§2) To investigate binding properties of test compounds to human σ1 receptor, transfected HEK-293 membranes and [^3H](+)-pentazocine (Perkin Elmer, NET-1056), as the radioligand, were used. The assay was carried out with 7 μg of membrane suspension, 5 nM of [^3H](+)-pentazocine in either absence or presence of either buffer or 10 μM Haloperidol for total and non-specific binding, respectively. Binding buffer contained Tris-HCl 50 mM at pH 8. Plates were incubated at 37° C. for 120 minutes. After the incubation period, the reaction mix was then transferred to MultiScreen HTS, FC plates (Millipore), filtered and plates were washed 3 times with ice-cold 10 mM Tris-HCL (pH7.4). Filters were dried and counted at approximately 40% efficiency in a MicroBeta scintillation counter (Perkin-Elmer) using EcoScint liquid scintillation cocktail", "values": [{"smiles": "CC[C@]1(N2CCN(CCc3ccccc3)CC2)CCO[C@@H](C)C1", "note": "(stereo in doubt) [Example 46, 1-(4-ethyl-2-methyltetrahydro-2H-pyran-4-yl)-4-phenethylpiperazine]", "μ and σ1 dual binding": "++"}, {"smiles": "CC[C@@]1(N2CCN(CCc3ccccc3)CC2)CCO[C@@H](C)C1", "note": "(stereo in doubt) [Example 47, 1-(4-ethyl-2-methyltetrahydro-2H-pyran-4-yl)-4-phenethylpiperazine]", "μ and σ1 dual binding": "++"}, {"smiles": "CC[C@@]1(N2CCN(Cc3ccc(C#N)cc3)CC2)CCO[C@@H](C)C1", "note": "(stereo in doubt) [Example 186, 4-((4-(4-ethyl-2-methyltetrahydro-2H-pyran-4-yl)piperazin-1-yl)methyl)benzonitrile]", "μ and σ1 dual binding": "++"}, {"smiles": "CC1(C)C[C@@](C(=O)c2ccccn2)(N2CCN(Cc3ccccc3)CC2)CCO1", "note": "[Example 2, (S)-(4-(4-benzylpiperazin-1-yl)-2,2-dimethyltetrahydro-2H-pyran-4-yl)(pyridin-2-yl)methanone]", "μ and σ1 dual binding": "++"}, {"smiles": "O=C(c1ccccn1)C1(N2CCN(Cc3ccccc3)CC2)CCOCC1", "note": "[Example 8, (4-(4-benzylpiperazin-1-yl)tetrahydro-2H-pyran-4-yl)(pyridin-2-yl)methanone]", "μ and σ1 dual binding": "++"}, {"smiles": "CC1(C)CC(C(=O)c2ccccc2)(N2CCN(Cc3ccccc3)CC2)CCO1", "note": "(stereo not shown) [Example 9, (4-(4-benzylpiperazin-1-yl)-2,2-dimethyltetrahydro-2H-pyran-4-yl)(phenyl)methanone]", "μ and σ1 dual binding": "++"}, {"smiles": "CC1(C)CC(C(=O)c2cccnc2)(N2CCN(Cc3ccccc3)CC2)CCO1", "note": "(stereo not shown) [Example 10, (4-(4-benzylpiperazin-1-yl)-2,2-dimethyltetrahydro-2H-pyran-4-yl)(pyridin-3-yl)methanone]", "μ and σ1 dual binding": "++"}, {"smiles": "CC(C)CN1CCN(C2(C(=O)c3ccccc3)CCOC(C)(C)C2)CC1", "note": "(stereo not shown) [Example 11, (4-(4-isobutylpiperazin-1-yl)-2,2-dimethyltetrahydro-2H-pyran-4-yl)(phenyl)methanone]", "μ and σ1 dual binding": "++"}, {"smiles": "CC(C)OCCN1CCN(C2(C(=O)c3ccccc3)CCOC(C)(C)C2)CC1", "note": "(stereo not shown) [Example 13, (4-(4-(2-isopropoxyethyl)piperazin-1-yl)-2,2-dimethyltetrahydro-2H-pyran-4-yl)(phenyl)methanone]", "μ and σ1 dual binding": "++"}, {"smiles": "CC1(C)CC(C(=O)c2ccccn2)(N2CCN(Cc3ccccc3)CC2)CC(C)(C)O1", "note": "[Example 17, (4-(4-benzylpiperazin-1-yl)-2,2,6,6-tetramethyltetrahydro-2H-pyran-4-yl)(pyridin-2-yl)methanone]", "μ and σ1 dual binding": "++"}, {"smiles": "CN(Cc1ccccc1)C1CN(C2(C(=O)c3ccccn3)CCOC(C)(C)C2)C1", "note": "(stereo not shown) [Example 19, (4-(3-(benzyl(methyl)amino)azetidin-1-yl)-2,2-dimethyltetrahydro-2H-pyran-4-yl)(pyridin-2-yl)methanone]", "μ and σ1 dual binding": "++"}, {"smiles": "O=C(c1ccccn1)C1(N2CCN(Cc3ccccc3)CC2)CCOC1", "note": "(stereo not shown) [Example 20, (3-(4-benzylpiperazin-1-yl)tetrahydrofuran-3-yl)(pyridin-2-yl)methanone]", "μ and σ1 dual binding": "++"}, {"smiles": "O=C(c1ccccn1)C1(C2CCN(Cc3ccccc3)CC2)CCOCC1", "note": "[Example 21, (4-(1-benzylpiperidin-4-yl)tetrahydro-2H-pyran-4-yl)(pyridin-2-yl)methanone]", "μ and σ1 dual binding": "++"}, {"smiles": "C[C@@H]1C[C@@](C(=O)c2ccccn2)(N2CCN(Cc3ccccc3)CC2)CCO1", "note": "[Example 28]", "μ and σ1 dual binding": "++"}, {"smiles": "c1ccc(CN2CCN(C3(c4ccccc4)CCOCC3)CC2)cc1", "note": "[Example 30, 1-benzyl-4-(4-phenyltetrahydro-2H-pyran-4-yl)piperazine]", "μ and σ1 dual binding": "++"}, {"smiles": "CCC1(N2CCN(Cc3ccccc3)CC2)CCOCC1", "note": "[Example 31, 1-benzyl-4-(4-ethyltetrahydro-2H-pyran-4yl)piperazine]", "μ and σ1 dual binding": "++"}, {"smiles": "CC1(C)CC(C)(N2CCN(Cc3ccccc3)CC2)CCO1", "note": "(stereo not shown) [Example 36, 1-benzyl-4-(2,2,4-trimethyltetrahydro-2H-pyran-4-yl)piperazine]", "μ and σ1 dual binding": "++"}, {"smiles": "CC(C)OCCN1CCN(C2(C)CCOC(C)(C)C2)CC1", "note": "(stereo not shown) [Example 37, 1-(2-isopropoxyethyl)-4-(2,2,4-trimethyltetrahydro-2H-pyran-4-yl)piperazine]", "μ and σ1 dual binding": "++"}]}, {"biological_target": "human σ1 receptor (Homo sapiens, UniProt Q99720)", "assay": "Human σ1 receptor radioligand assay ([3H](+)-pentazocine, transfected HEK-293 membranes)", "assay_type": "binding", "design": "μ and σ1 dual binding: key to the marks not given beside the values", "settings": "one class symbol for both Ki-σ1 (human σ1 receptor, A1) and Ki-μ (human μ-opioid receptor, A2); read-out: μ and σ1 dual binding", "protocol": "as §1, §2", "units": {"Ki": "nM"}, "values": [{"smiles": "CC[C@]1(N2CCN(Cc3ccc(C#N)cc3)CC2)CCO[C@@H](C)C1", "note": "(stereo in doubt) [Example 187, 4-((4-(4-ethyl-2-methyltetrahydro-2H-pyran-4-yl)piperazin-1-yl)methyl)benzonitrile]", "Ki": "> 500"}, {"smiles": "CC(C)CN1CCN(C2(C(=O)c3ccccn3)CCOC(C)(C)C2)CC1", "note": "(stereo not shown) [Example 14, (4-(4-isobutylpiperazin-1-yl)-2,2-dimethyltetrahydro-2H-pyran-4-yl)(pyridin-2-yl)methanone]", "Ki": "> 500"}, {"smiles": "CC(C)OCCN(C)C1CN(C2(C(=O)c3ccccn3)CCOC(C)(C)C2)C1", "note": "(stereo not shown) [Example 23, (4-(3-((2-isopropoxyethyl)(methyl)amino)azetidin-1-yl)-2,2-dimethyltetrahydro-2H-pyran-4-yl)(pyridin-2-yl)methanone]", "Ki": "> 500"}, {"smiles": "C[C@@H]1C[C@@](C(=O)c2ccccn2)(N2CCN(Cc3ccccc3)CC2)CCO1", "note": "[Example 25]", "Ki": "> 500"}, {"smiles": "C[C@@H]1C[C@@](C(=O)c2ccccn2)(N2CCN(CCc3ccccc3)CC2)CCO1", "note": "[Example 26]", "Ki": "< 500"}, {"smiles": "C[C@H]1C[C@](C(=O)c2ccccn2)(N2CCN(Cc3ccccc3)CC2)CCO1", "note": "[Example 27]", "Ki": "< 500"}]}, {"biological_target": "human σ1 receptor (Homo sapiens, UniProt Q99720)", "assay": "Human σ1 receptor radioligand assay ([3H](+)-pentazocine, transfected HEK-293 membranes)", "assay_type": "binding", "design": "μ and σ1 dual binding: key to the marks not given beside the values", "settings": "μ and σ1 dual binding, one class symbol for both Ki-σ1 (human σ1 receptor, A1) and Ki-μ (human μ-opioid receptor, A2)", "protocol": "as §1, §2", "units": {"Ki": "nM"}, "values": [{"smiles": "CC1(C)CC(C(=O)c2ccccn2)(N2CCN(Cc3ccccc3)CC2)CCO1", "note": "(stereo not shown) [Example 1, (4-(4-benzylpiperazin-1-yl)-2,2-dimethyltetrahydro-2H-pyran-4-yl)(pyridin-2-yl)methanone]", "Ki": "< 100"}, {"smiles": "CC1(C)C[C@](C(=O)c2ccccn2)(N2CCN(Cc3ccccc3)CC2)CCO1", "note": "[Example 3, (R)-(4-(4-benzylpiperazin-1-yl)-2,2-dimethyltetrahydro-2H-pyran-4-yl)(pyridin-2-yl)methanone]", "Ki": "< 100"}, {"smiles": "O=C(c1ccccc1)C1(N2CCN(Cc3ccccc3)CC2)CCOC2(CCCC2)C1", "note": "(stereo not shown) [Example 4, (9-(4-benzylpiperazin-1-yl)-6-oxaspiro[4.5]decan-9-yl)(phenyl)methanone]", "Ki": "< 100"}, {"smiles": "O=C(c1cccc(C(F)(F)F)n1)C1(N2CCN(Cc3ccccc3)CC2)CCOC2(CCCC2)C1", "note": "(stereo not shown) [Example 6, (9-(4-benzylpiperazin-1-yl)-6-oxaspiro[4.5]decan-9-yl)(6-(trifluoromethyl)pyridin-2-yl)methanone]", "Ki": "< 100"}, {"smiles": "CC(C)CN1CCN(C2(C(=O)c3ccccc3)CCOC3(CCCC3)C2)CC1", "note": "(stereo not shown) [Example 7, (9-(4-isobutylpiperazin-1-yl)-6-oxaspiro[4.5]decan-9-yl)(phenyl)methanone]", "Ki": "< 100"}, {"smiles": "CC(C)CCN1CCN(C2(C(=O)c3ccccc3)CCOC(C)(C)C2)CC1", "note": "(stereo not shown) [Example 12, (4-(4-isopentylpiperazin-1-yl)-2,2-dimethyltetrahydro-2H-pyran-4-yl)(phenyl)methanone]", "Ki": "< 500"}, {"smiles": "CC1(C)CC(C(=O)c2cccc(C(F)(F)F)n2)(N2CCN(Cc3ccccc3)CC2)CCO1", "note": "(stereo not shown) [Example 15, (4-(4-benzylpiperazin-1-yl)-2,2-dimethyltetrahydro-2H-pyran-4-yl)(6-(trifluoromethyl)pyridin-2-yl)methanone]", "Ki": "< 100"}, {"smiles": "CC(C)OCCN1CCN(C2(C(=O)c3cccc(C(F)(F)F)n3)CCOC(C)(C)C2)CC1", "note": "(stereo not shown) [Example 16, (4-(4-(2-isopropoxyethyl)piperazin-1-yl)-2,2-dimethyltetrahydro-2H-pyran-4-yl)(6-(trifluoromethyl)pyridin-2-yl)methanone]", "Ki": "< 500"}, {"smiles": "CC1(C)CC(C(=O)c2ccccn2)(N2CC3CN(Cc4ccccc4)CC3C2)CCO1", "note": "(stereo not shown) [Example 18, (4-(5-benzylhexahydropyrrolo[3,4-c]pyrrol-2(1H)-yl)-2,2-dimethyltetrahydro-2H-pyran-4-yl)(pyridin-2-yl)methanone]", "Ki": "< 500"}, {"smiles": "CC1(C)CC(C(=O)c2ccccn2)(C2CCN(Cc3ccccc3)CC2)CCO1", "note": "(stereo not shown) [Example 22, (4-(1-benzylpiperidin-4-yl)-2,2-dimethyltetrahydro-2H-pyran-4-yl)(pyridin-2-yl)methanone]", "Ki": "< 500"}, {"smiles": "CC1(C)CC(C(=O)c2ccccn2)(N2CCCN(Cc3ccccc3)CC2)CCO1", "note": "(stereo not shown) [Example 24, (4-(4-benzyl-1,4-diazepan-1-yl)-2,2-dimethyltetrahydro-2H-pyran-4-yl)(pyridin-2-yl)methanone]", "Ki": "< 500"}, {"smiles": "CCC1(N2CCN(Cc3ccccc3)CC2)CCOC2(CCCC2)C1", "note": "(stereo not shown) [Example 29, 1-benzyl-4-(9-ethyl-6-oxaspiro[4.5]decan-9-yl)piperazine]", "Ki": "< 500"}, {"smiles": "c1ccc(CN2CCN(C3(c4ccccc4)CCOC4(CCCC4)C3)CC2)cc1", "note": "(stereo not shown) [Example 32, 1-benzyl-4-(9-phenyl-6-oxaspiro[4.5]decan-9-yl)piperazine]", "Ki": "< 100"}, {"smiles": "CC(C)CN1CCN(C2(c3ccccc3)CCOC3(CCCC3)C2)CC1", "note": "(stereo not shown) [Example 33, 1-isobutyl-4-(9-phenyl-6-oxaspiro[4.5]decan-9-yl)piperazine]", "Ki": "< 500"}, {"smiles": "c1ccc(CN2CCN(C3(Cc4ccccc4)CCOC4(CCCC4)C3)CC2)cc1", "note": "(stereo not shown) [Example 34, 1-benzyl-4-(9-benzyl-6-oxaspiro[4.5]decan-9-yl)piperazine]", "Ki": "< 500"}, {"smiles": "CC1(C)CC(c2ccccc2)(N2CCN(Cc3ccccc3)CC2)CCO1", "note": "(stereo not shown) [Example 35, 1-benzyl-4-(2,2-dimethyl-4-phenyltetrahydro-2H-pyran-4-yl)piperazine]", "Ki": "< 500"}]}]}
